target: human Cav2.2 (Homo sapiens, UniProt Q00975); test: Assessment of calcium channel activity using FLIPR (Ca2+ influx in IMR32 cells); type: cell-based; settings: not given
Summary of the method: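 Human neuroblastoma IMR32 cells were seeded at 1−1.2×10^5 cells/well and cultured 48 h at 37 °C before FLIPR calcium influx measurement. Percent inhibition at each concentration was calculated against the no-inhibitor signal, and IC50 came from sigmoidal dose-response fits.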

human Cav2.2, sequence (Q00975 whole entry): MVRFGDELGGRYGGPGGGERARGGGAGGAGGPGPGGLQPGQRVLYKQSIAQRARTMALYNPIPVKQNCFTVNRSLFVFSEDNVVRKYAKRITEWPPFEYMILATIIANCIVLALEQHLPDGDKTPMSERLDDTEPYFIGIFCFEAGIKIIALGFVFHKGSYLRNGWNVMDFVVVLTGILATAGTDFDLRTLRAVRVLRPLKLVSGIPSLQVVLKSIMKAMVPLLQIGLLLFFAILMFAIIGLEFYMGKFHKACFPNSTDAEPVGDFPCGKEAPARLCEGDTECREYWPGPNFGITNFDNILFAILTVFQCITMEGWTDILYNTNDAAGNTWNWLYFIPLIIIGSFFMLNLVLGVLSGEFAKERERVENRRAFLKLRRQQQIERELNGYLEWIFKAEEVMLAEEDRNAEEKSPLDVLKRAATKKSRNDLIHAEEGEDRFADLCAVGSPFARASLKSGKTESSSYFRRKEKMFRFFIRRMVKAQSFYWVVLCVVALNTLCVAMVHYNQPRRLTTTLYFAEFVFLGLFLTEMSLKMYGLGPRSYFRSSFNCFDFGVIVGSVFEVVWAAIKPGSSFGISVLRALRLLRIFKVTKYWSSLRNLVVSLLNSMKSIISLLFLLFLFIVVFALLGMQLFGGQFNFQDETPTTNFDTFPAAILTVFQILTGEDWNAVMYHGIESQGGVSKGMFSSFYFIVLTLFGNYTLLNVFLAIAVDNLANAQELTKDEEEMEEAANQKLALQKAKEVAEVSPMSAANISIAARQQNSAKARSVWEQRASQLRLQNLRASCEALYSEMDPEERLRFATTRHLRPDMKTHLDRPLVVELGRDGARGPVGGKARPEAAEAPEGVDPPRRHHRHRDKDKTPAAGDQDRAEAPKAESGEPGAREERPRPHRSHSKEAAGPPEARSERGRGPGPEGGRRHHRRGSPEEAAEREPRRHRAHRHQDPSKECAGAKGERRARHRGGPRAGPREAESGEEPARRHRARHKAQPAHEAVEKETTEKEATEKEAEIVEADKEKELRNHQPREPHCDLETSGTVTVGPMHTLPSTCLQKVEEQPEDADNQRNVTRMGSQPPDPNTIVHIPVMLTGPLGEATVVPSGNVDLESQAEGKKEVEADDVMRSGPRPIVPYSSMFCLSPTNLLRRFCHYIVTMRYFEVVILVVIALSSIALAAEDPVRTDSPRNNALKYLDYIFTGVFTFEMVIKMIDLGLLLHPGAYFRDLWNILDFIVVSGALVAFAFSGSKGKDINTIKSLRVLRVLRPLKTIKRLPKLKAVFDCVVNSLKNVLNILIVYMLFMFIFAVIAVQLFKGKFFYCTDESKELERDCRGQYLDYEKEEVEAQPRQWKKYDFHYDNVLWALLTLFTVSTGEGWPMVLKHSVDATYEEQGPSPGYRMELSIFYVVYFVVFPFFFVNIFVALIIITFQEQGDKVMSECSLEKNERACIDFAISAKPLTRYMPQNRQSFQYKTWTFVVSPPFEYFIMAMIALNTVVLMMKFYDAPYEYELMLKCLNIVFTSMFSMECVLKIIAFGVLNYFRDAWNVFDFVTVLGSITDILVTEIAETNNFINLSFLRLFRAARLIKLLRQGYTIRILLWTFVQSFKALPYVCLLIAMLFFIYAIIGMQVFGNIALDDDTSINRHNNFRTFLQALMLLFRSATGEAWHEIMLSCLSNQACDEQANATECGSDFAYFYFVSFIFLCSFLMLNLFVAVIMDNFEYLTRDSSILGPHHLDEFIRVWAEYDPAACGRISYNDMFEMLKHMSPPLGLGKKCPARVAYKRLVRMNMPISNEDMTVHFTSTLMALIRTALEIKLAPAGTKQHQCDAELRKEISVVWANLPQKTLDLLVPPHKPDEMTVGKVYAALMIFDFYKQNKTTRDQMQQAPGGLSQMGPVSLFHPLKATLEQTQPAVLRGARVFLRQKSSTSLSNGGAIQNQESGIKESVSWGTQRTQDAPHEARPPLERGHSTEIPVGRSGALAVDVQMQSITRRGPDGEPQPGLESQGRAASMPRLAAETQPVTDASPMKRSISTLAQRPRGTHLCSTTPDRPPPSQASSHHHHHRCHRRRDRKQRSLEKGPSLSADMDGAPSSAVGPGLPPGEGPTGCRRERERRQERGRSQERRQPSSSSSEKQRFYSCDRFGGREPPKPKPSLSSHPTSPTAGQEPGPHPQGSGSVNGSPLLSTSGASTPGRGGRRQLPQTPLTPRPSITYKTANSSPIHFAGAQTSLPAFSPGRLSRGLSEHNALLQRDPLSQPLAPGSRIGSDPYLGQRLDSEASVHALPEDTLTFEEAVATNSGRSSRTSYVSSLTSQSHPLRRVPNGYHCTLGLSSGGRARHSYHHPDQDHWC
human Cav2.2, sequence (P54289 25-956 partner limits assumed): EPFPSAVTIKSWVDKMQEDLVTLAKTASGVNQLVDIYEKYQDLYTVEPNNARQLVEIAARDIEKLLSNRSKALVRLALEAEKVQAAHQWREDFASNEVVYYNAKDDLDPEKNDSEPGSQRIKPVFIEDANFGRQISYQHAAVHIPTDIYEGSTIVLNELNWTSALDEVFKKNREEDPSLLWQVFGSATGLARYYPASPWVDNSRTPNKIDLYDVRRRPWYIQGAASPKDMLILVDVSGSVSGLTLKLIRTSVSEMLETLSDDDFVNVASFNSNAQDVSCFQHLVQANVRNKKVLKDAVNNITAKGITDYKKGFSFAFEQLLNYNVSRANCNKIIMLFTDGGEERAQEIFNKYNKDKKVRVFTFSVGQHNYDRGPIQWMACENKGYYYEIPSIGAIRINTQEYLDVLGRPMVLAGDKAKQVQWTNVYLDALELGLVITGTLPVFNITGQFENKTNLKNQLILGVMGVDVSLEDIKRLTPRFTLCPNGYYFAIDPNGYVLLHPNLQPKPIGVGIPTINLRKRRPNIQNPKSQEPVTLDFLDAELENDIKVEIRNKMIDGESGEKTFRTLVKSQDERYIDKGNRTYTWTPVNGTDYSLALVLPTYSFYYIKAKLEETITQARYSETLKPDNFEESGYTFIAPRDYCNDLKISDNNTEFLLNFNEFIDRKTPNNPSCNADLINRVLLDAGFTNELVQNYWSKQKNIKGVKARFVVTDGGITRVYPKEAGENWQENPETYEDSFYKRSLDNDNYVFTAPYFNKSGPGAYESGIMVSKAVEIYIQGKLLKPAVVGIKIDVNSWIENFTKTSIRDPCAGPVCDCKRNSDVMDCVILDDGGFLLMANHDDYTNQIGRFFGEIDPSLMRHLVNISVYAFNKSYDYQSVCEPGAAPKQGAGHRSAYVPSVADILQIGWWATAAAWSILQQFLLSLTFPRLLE
human Cav2.2, sequence (P54289 957-1103 partner limits assumed): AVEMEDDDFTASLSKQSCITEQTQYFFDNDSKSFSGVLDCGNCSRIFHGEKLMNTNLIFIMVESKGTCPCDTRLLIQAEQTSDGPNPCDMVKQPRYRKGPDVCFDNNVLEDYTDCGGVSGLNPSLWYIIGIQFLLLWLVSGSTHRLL
human Cav2.2, sequence (P54284 whole entry partner): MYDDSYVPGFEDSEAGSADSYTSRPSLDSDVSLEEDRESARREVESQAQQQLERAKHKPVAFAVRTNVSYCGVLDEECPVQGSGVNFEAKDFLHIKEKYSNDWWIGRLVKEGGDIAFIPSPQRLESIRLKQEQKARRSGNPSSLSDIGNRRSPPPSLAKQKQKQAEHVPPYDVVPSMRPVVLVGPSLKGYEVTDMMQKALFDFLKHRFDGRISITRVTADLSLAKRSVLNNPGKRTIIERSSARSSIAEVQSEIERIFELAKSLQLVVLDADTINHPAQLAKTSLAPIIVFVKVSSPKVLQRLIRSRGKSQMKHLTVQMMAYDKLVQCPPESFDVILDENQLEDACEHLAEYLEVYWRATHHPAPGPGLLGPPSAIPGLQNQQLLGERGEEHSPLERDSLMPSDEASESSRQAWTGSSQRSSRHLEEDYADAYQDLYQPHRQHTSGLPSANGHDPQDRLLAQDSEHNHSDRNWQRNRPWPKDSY

Structure (SMILES) | IC50 [µM]
O=C(N[C@@H]1CC[C@H]2CN(Cc3cccc(C(F)(F)F)c3)C[C@H]21)C(C1CCCCC1)C1CCCCC1 [Example 75, 2,2-dicyclohexyl-N-{(3aS,4R,6aR)-2-[3-(trifluoromethyl)benzyl]octahydrocyclopenta[c]pyrrol-4-yl}acetamide] | 0.45
COc1ccc2[nH]c(CN[C@H]3CC[C@@H]4CN(c5cccc(C(F)(F)F)n5)C[C@@H]43)c(C)c2c1 [Example 668, (3aR,4S,6aS)-N-[(5-methoxy-3-methyl-1H-indol-2-yl)methyl]-2-[6-(trifluoromethyl)pyridin-2-yl]octahydrocyclopenta[c]pyrrol-4-amine] | 1.55
O=C(N[C@H]1CC[C@@H]2CN(Cc3cccc(C(F)(F)F)c3)C[C@@H]21)C(C1CCCCC1)C1CCCCC1 [Example 156, 2,2-dicyclohexyl-N-{(3aR,4S,6aS)-2-[3-(trifluoromethyl)benzyl]octahydrocyclopenta[c]pyrrol-4-yl}acetamide] | 0.76
O=C(N[C@H]1CC[C@H]2CN(Cc3ccccc3F)C[C@H]21)C(C1CCCCC1)C1CCCCC1 [Example 55, 2,2-dicyclohexyl-N-[(3aS,4S,6aR)-2-(2-fluorobenzyl)octahydrocyclopenta[c]pyrrol-4-yl]acetamide] | 1.12
COc1ccc(-c2n[nH]cc2CN[C@H]2CC[C@@H]3CN(c4cccc(C(F)(F)F)n4)C[C@@H]32)cc1 [Example 681, (3aR,4S,6aS)-N-{[3-(4-methoxyphenyl)-1H-pyrazol-4-yl]methyl}-2-[6-(trifluoromethyl)pyridin-2-yl]octahydrocyclopenta[c]pyrrol-4-amine] | 0.98
COc1ccc(N2C[C@H]3CC[C@H](NC(=O)[C@@H]4C[C@@H](F)CN4)[C@H]3C2)cc1 [Example 653, (4R)-4-fluoro-N-[(3aR,4S,6aS)-2-(4-methoxyphenyl)octahydrocyclopenta[c]pyrrol-4-yl]-L-prolinamide] | > 30
FC(F)(F)c1cccc(N2C[C@H]3CC[C@H](NCc4nc(-c5ccccc5)c[nH]4)[C@H]3C2)n1 [Example 746, (3aR,4S,6aS)-N-[(4-phenyl-1H-imidazol-2-yl)methyl]-2-[6-(trifluoromethyl)pyridin-2-yl]octahydrocyclopenta[c]pyrrol-4-amine] | 1.71
Cc1ccc(N2C[C@H]3CC[C@H](NC(=O)[C@@H]4C[C@@H](F)CN4)[C@H]3C2)cc1 [Example 652, (4R)-4-fluoro-N-[(3aR,4S,6aS)-2-(4-methylphenyl)octahydrocyclopenta[c]pyrrol-4-yl]-L-prolinamide] | 21.2

Second part, the compound after the results:

IC50 [µM] | Structure (SMILES)
> 30 | CN[C@@H](CC(C)C)C(=O)N[C@H]1CC[C@@H]2CN(Cc3ccc(F)cc3)C[C@@H]21 [Example 381, N^1-[(3aR,4S,6aS)-2-(4-fluorobenzyl)octahydrocyclopenta[c]pyrrol-4-yl]-N^2-methyl-L-leucinamide]
12.3 | CN[C@H](C(=O)N[C@H]1CC[C@@H]2CN(c3ccc(C(F)(F)F)cn3)C[C@@H]21)C(C)C [Example 763, N^2-methyl-N-{(3aR,4S,6aS)-2-[5-(trifluoromethyl)pyridin-2-yl]octahydrocyclopenta[c]pyrrol-4-yl}-L-valinamide]
1.69 | O=C(N[C@H]1CC[C@@H]2CN(c3cccc(C(F)(F)F)n3)C[C@@H]21)c1ccccc1O [Example 562, 2-hydroxy-N-{(3aR,4S,6aS)-2-[6-(trifluoromethyl)pyridin-2-yl]octahydrocyclopenta[c]pyrrol-4-yl}benzamide]
1.88 | CN[C@@H](CC(C)(C)C)C(=O)N[C@H]1CC[C@@H]2CN(c3ccc(C(F)(F)F)cn3)C[C@@H]21 [Example 602, N^2,4-dimethyl-N-{(3aR,4S,6aS)-2-[5-(trifluoromethyl)pyridin-2-yl]octahydrocyclopenta[c]pyrrol-4-yl}-L-leucinamide]

same assay, conditions: read-out: IC50 (μM) or percent inhibition (* indicates 3 minute incubation, otherwise 60 minute); IC50; 60 minute pre-incubation with compound; IMR32 cells, 80 mM KCl depolarization

Structure (SMILES) | IC50 [µM]
O=C(CCCCC(c1ccc(F)cc1)c1ccc(F)cc1)N[C@H]1CC[C@H]2CN(Cc3cccc(C(F)(F)F)c3)C[C@H]21 (relative stereo) [Example 130, 6,6-bis(4-fluorophenyl)-N-{(3aS*,4S*,6aR*)-2-[3-(trifluoromethyl)benzyl]octahydrocyclopenta[c]pyrrol-4-yl}hexanamide] | 0.79
O=C(N[C@@H]1CC[C@H]2CN(Cc3ccccc3)C[C@H]21)C(c1ccccc1)C1CCCC1 (relative stereo) [Example 8, N-[(3aS*,4R*,6aR*)-2-benzyloctahydrocyclopenta[c]pyrrol-4-yl]-2-cyclopentyl-2-phenylacetamide] | 1.07
O=S(=O)(c1cccc(C(F)(F)F)c1)N(C1CC1)[C@H]1CC[C@H]2CN(Cc3cccc(C(F)(F)F)c3)C[C@H]21 (relative stereo) [Example 204, N-cyclopropyl-3-(trifluoromethyl)-N-{(3aS*,4S*,6aR*)-2-[3-(trifluoromethyl)benzyl]octahydrocyclopenta[c]pyrrol-4-yl}benzenesulfonamide] | 1.27

Now from value to compound:

IC50 [µM] | Structure (SMILES)
0.92 | CC(C)C[C@@H](C(=O)N[C@@H]1CC[C@H]2CN(Cc3cccc(C(F)(F)F)c3)C[C@H]21)N(C)S(C)(=O)=O [Example 169, N^2-methyl-N^2-(methylsulfonyl)-N^1-{(3aS,4R,6aR)-2-[3-(trifluoromethyl)benzyl]octahydrocyclopenta[c]pyrrol-4-yl}-L-leucinamide]
9.75 | CCN(CC)[C@H]1CC[C@@H]2CN(S(=O)(=O)c3ccc(C(F)(F)F)cc3)C[C@@H]21 [Example 289, (3aR,4S,6aS)-N,N-diethyl-2-{[4-(trifluoromethyl)phenyl]sulfonyl}octahydrocyclopenta[c]pyrrol-4-amine]
1.04 | CC(C)C[C@H](NS(=O)(=O)C1CC1)C(=O)N[C@H]1CC[C@H]2CN(Cc3cccc(C(F)(F)F)c3)C[C@H]21 [Example 174, N^2-(cyclopropylsulfonyl)-N^1-{(3aS,4S,6aR)-2-[3-(trifluoromethyl)benzyl]octahydrocyclopenta[c]pyrrol-4-yl}-L-leucinamide]
1.48 | CC(C)C(C(=O)N[C@@H]1CC[C@H]2CN(Cc3cccc(C(F)(F)F)c3)C[C@H]21)c1ccccc1 (stereo partly drawn) [Example 82, 3-methyl-2-phenyl-N-{(3aS,4R,6aR)-2-[3-(trifluoromethyl)benzyl]octahydrocyclopenta[c]pyrrol-4-yl}butanamide]
7.8 | CCN(CC)[C@H]1CC[C@@H]2CN(S(=O)(=O)c3ccc(C(F)(F)F)cc3Cl)C[C@@H]21 [Example 294, (3aR,4S,6aS)-2-{[2-chloro-4-(trifluoromethyl)phenyl]sulfonyl}-N,N-diethyloctahydrocyclopenta[c]pyrrol-4-amine]
14.1 | CC(C)[C@@H](CC(=O)N[C@@H]1CC[C@H]2CN(S(=O)(=O)c3cccc(C(F)(F)F)c3)C[C@H]21)NC(=O)OC(C)(C)C [Example 267, tert-butyl(1R)-1-isopropyl-3-oxo-3-[((3aS,4R,6aR)-2-{[3-(trifluoromethyl)phenyl]sulfonyl}octahydrocyclopenta[c]pyrrol-4-yl)amino]propylcarbamate]
9.11 | CC(C)C[C@H](NCC(C)(C)C)C(=O)N[C@H]1CC[C@@H]2CN(Cc3ccccc3)C[C@@H]21 [Example 244, N^1-[(3aR,4S,6aS)-2-benzyloctahydrocyclopenta[c]pyrrol-4-yl]-N^2-neopentyl-L-leucinamide]

Source: patent US8691865B2 (AbbVie Inc., priority 2008, dated 2014)
